Reference: patent publication US11844795B2, “Combination therapy for cancer treatment” (Ipsen Biopharm Ltd., priority 2015, dated 2023)
Read-outs that look alike come from different tables or passages of the source.

Experiments:
[1] = system: DMS-114 small cell lung cancer cells; test: % cell number over time, SN-38 with PARP inhibitors; format: cell-based; conditions: SN-38 at 2 nM; DMS-114 SCLC cells
[2] = system: NCI-H1048 small cell lung cancer cells; test: as above; format: cell-based; conditions: SN-38 at 2 nM; NCI-H1048 SCLC cells
[3] = system: CFPAC-1 pancreatic cancer cells; test: as above; format: cell-based; conditions: SN-38 at 2 nM
[4] = system: small cell lung cancer (SCLC), pancreatic cancer and breast cancer cell lines; test: Growth inhibition, SN-38 with PARP inhibitors; format: cell-based; conditions: for growth inhibition of the cancer cells in combination with SN-38: 2 nM SN-38
BT20 = test: Cell survival (CellTiter-Glo) after SN-38 and/or PARP inhibitor; format: cell-based; conditions: for IC50: Homo sapiens
Method: (§1) Cells were plated at 1000 cells/well and then incubated for 24 hours. […] The plates were then allowed to incubate for 72 hours period. After the 72 hour incubation period the media was removed and cell viability was determined using the CellTiter-Glo® cell viability assay (Promega, Madison Wis.) according to the product instructions.

BT549 = test: as above; format: cell-based; conditions: BT549, single agent
Method: as §1

HCC1954 = test: as above; format: cell-based; conditions: for IC50: Homo sapiens
Method: as §1

HCC38 = test: as above; format: cell-based; conditions: for IC50: Homo sapiens
Method: as §1

SUM149PT = test: as above; format: cell-based
Method: as §1

SUM159PT = test: as above; format: cell-based; conditions: for IC50: Homo sapiens, SUM-159-PT
Method: as §1

PAR = conditions: Table 2B, unit inferred; cited from earlier work
cancer cells = test: Active range based on XTC008
HT-29 = test: In vitro SN-38 effect on cell line (GI50); format: cell-based; conditions: HT-29, in vitro
[5] = system: HT-29 colorectal cancer (CRC) tumor xenograft; test: Tumor SN-38 and tumor response in HT-29 xenograft-bearing mice; format: in vivo
Method: The duration of tumor exposure to the topoisomerase 1 inhibitor SN-38 above a threshold minimum concentration (e.g., 120 nM) correlated with antitumor activity of the liposomal irinotecan. […] For example, FIG. 13B depicts tumor content of SN-38 in multiple murine cervical cancer models. […] Levels of SN-38 of 120 nM were identified as the SN-38 tumor concentration required to yield tumor response.

HCC1187 = test: Cell survival (CellTiter-Glo) after SN-38 and/or PARP inhibitor; format: cell-based; conditions: for IC50 log10 (μM) / Maximum Kill Percent: HCC1187, single agent
Method: as §1

HCC1806 = test: as above; format: cell-based; conditions: Exp. 1, single agent
Method: as §1

HCC70 = test: as above; format: cell-based; conditions: Exp. 2, single agent
Method: as §1

SKBR3 = test: as above; format: cell-based; conditions: Exp. 4, single agent
Method: as §1

human plasma proteins = conditions: cited from earlier work
[6] = system: C33A cervical cancer xenograft; test: C33A cervical cancer xenograft model
PARG = PARG (Homo sapiens, UniProt Q86W56); conditions: cited from earlier work
Chain of PARG (Q86W56 whole entry, species assumed): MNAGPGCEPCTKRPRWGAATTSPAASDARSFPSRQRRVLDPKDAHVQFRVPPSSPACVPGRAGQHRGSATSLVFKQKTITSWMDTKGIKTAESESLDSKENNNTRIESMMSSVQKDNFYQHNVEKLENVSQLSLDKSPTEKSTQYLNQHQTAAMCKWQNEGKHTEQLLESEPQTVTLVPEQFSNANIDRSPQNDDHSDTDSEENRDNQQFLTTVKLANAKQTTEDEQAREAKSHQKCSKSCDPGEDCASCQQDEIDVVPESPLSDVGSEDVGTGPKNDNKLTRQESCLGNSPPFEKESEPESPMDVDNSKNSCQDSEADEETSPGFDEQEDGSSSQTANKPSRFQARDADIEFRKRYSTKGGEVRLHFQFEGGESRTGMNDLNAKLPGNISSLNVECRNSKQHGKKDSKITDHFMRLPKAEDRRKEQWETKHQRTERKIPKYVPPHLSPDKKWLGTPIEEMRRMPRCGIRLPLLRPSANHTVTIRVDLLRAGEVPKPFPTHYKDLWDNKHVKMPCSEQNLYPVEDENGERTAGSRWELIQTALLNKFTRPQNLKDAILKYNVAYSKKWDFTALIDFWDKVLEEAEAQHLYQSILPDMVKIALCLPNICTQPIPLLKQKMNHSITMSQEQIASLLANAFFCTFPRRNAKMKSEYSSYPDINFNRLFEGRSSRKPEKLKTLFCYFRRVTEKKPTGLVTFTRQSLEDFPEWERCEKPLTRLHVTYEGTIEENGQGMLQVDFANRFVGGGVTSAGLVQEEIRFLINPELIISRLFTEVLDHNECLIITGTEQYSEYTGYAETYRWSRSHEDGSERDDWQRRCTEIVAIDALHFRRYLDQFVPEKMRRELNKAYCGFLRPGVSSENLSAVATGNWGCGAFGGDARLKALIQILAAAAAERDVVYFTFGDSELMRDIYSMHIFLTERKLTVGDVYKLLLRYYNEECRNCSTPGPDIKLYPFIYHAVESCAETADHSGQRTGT

SIRT2 = SIRT2 (Homo sapiens, UniProt Q8IXJ6); conditions: cited from earlier work
Chain of SIRT2 (Q8IXJ6 whole entry, species assumed): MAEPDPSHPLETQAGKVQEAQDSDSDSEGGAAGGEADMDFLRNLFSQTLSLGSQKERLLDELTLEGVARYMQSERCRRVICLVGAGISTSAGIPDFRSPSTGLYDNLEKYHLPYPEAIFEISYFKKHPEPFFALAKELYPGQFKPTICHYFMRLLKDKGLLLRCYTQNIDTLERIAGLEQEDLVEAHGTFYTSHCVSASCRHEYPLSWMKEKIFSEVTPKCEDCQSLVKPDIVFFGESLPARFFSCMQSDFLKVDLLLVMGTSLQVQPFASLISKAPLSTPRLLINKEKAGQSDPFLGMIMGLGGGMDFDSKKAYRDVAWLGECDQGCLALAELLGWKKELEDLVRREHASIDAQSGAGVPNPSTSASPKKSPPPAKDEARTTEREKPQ

[7] = system: MS751 cervical cancer xenograft; test: MS751 cervical cancer xenograft model; conditions: MM-398 5 mg/kg weekly Day 1; veliparib 50 mg/kg orally Days 4-6; FIG. 7A

CNCc1ccc(-c2[nH]c3cc(F)cc4c3c2CCNC4=O)cc1 [Rucaparib]
Estimated tumor range (Estimated tumor range): <6000 nM | effect of combination with SN-38 [1]: Additive/synergistic effects | sensitivity of cells to combination with SN-38 [2]: very sensitive | effect of combination with SN-38 [3]: Additive/synergistic effects | growth inhibition of the cancer cells in combination with SN-38 [4]: additive/synergistic growth inhibition | Maximum Kill Percent (BT20; BT20, Exp. 3, single agent): 100% | IC50 (BT20; BT-20, BT20, Exp. 3, single agent, read-out: IC50 log10 (converted)): 18.6 µM | Maximum Kill Percent (BT549; Exp. 3): 100% | IC50 (BT549; Homo sapiens, BT-549, Exp. 3, read-out: IC50 log10 (converted)): 56.2 µM | Maximum Kill Percent (HCC1954; HCC1954, Exp. 3, single agent): 100% | IC50 (HCC1954; HCC1954, Exp. 3, single agent, read-out: IC50 log10 (converted)): 39.8 µM | Maximum Kill Percent (HCC38; HCC38, Exp. 3, single agent): 87% | IC50 (HCC38; HCC38, Exp. 3, single agent, read-out: IC50 log10 (converted)): 0.851 µM | Maximum Kill Percent (SUM149PT; Exp. 3, single agent): 99% | IC50 (SUM149PT; Homo sapiens, Exp. 3, single agent, read-out: IC50 log10 (converted)): 47.9 µM | IC50 (SUM159PT; SUM159PT, Exp. 3, single agent, read-out: IC50 log10 (converted)): 0.851 µM | Maximum Kill Percent (SUM159PT; SUM159PT, Exp. 3, single agent): 97% | EC50 (PAR): 0.0047 µM | Active Range based on XTC008 (cancer cells; (Panc)): 1 to 100 nM

CCc1c2c(nc3ccc(O)cc13)-c1cc3c(c(=O)n1C2)COC(=O)[C@]3(O)CC [SN-38]
GI50 (HT-29): ~0.06 µM | SN-38 tumor concentration required to yield tumor response [5]: 120 nM | Estimated tumor range (Estimated tumor range; (398)): 3 to 163 nM | Estimated tumor range (Estimated tumor range; IRI): IRI < 200 nM | IC50 log10 (μM) (BT20; BT20, Exp. 1, single agent): −0.18 log10 (μM) | Maximum Kill Percent (BT20; BT20, Exp. 1, single agent): 100% | IC50 log10 (μM) (BT20; BT20, Exp. 2, single agent): −0.69 log10 (μM) | Maximum Kill Percent (BT20; BT20, Exp. 2, single agent): 100% | IC50 log10 (μM) (BT20; BT20, Exp. 3, single agent): −0.37 log10 (μM) | Maximum Kill Percent (BT20; BT20, Exp. 3, single agent): 100% | IC50 log10 (μM) (BT20; BT20, Exp. 4, single agent): −0.24 log10 (μM) | Maximum Kill Percent (BT20; BT20, Exp. 4, single agent): 100% | IC50 log10 (μM) (BT549; Exp. 1): −0.10 log10 (μM) | Maximum Kill Percent (BT549; Exp. 1): 95% | IC50 log10 (μM) (BT549; Exp. 2): −0.04 log10 (μM) | Maximum Kill Percent (BT549; Exp. 2): 93% | IC50 log10 (μM) (BT549; Exp. 3): −0.05 log10 (μM) | Maximum Kill Percent (BT549; Exp. 3): 94% | IC50 log10 (μM) (HCC1187; Exp. 1): −0.68 log10 (μM) | Maximum Kill Percent (HCC1187; Exp. 1): 90% | IC50 log10 (μM) (HCC1187; Exp. 2): −0.64 log10 (μM) | Maximum Kill Percent (HCC1187; Exp. 2): 100% | IC50 log10 (μM) (HCC1187; Exp. 4): −0.98 log10 (μM) | Maximum Kill Percent (HCC1187; Exp. 4): 88% | IC50 log10 (μM) (HCC1806): −2.08 log10 (μM) | Maximum Kill Percent (HCC1806): 93% | IC50 log10 (μM) (HCC1954; HCC1954, Exp. 3, single agent): −0.97 log10 (μM) | Maximum Kill Percent (HCC1954; HCC1954, Exp. 3, single agent): 94% | IC50 log10 (μM) (HCC1954; HCC1954, Exp. 4, single agent): −0.65 log10 (μM) | Maximum Kill Percent (HCC1954; HCC1954, Exp. 4, single agent): 100% | IC50 log10 (μM) (HCC38; HCC38, Exp. 1, single agent): −2.80 log10 (μM) | Maximum Kill Percent (HCC38; HCC38, Exp. 1, single agent): 96% | IC50 log10 (μM) (HCC38; HCC38, Exp. 3, single agent): −2.89 log10 (μM) | Maximum Kill Percent (HCC38; HCC38, Exp. 3, single agent): 92% | IC50 log10 (μM) (HCC38; HCC38, Exp. 4, single agent): −2.75 log10 (μM) | Maximum Kill Percent (HCC38; HCC38, Exp. 4, single agent): 92% | IC50 log10 (μM) (HCC70): −0.07 log10 (μM) | Maximum Kill Percent (HCC70): 97% | IC50 log10 (μM) (SKBR3): −1.38 log10 (μM) | Maximum Kill Percent (SKBR3): 88% | IC50 log10 (μM) (SUM149PT; Exp. 2, single agent): 0.24 log10 (μM) | Maximum Kill Percent (SUM149PT; Exp. 2, single agent): 96% | IC50 log10 (μM) (SUM149PT; Exp. 3, single agent): 0.27 log10 (μM) | Maximum Kill Percent (SUM149PT; Exp. 3, single agent): 95% | IC50 log10 (μM) (SUM159PT; SUM159PT, Exp. 1, single agent): −2.35 log10 (μM) | Maximum Kill Percent (SUM159PT; SUM159PT, Exp. 1, single agent): 97% | IC50 log10 (μM) (SUM159PT; SUM159PT, Exp. 2, single agent): −2.39 log10 (μM) | Maximum Kill Percent (SUM159PT; SUM159PT, Exp. 2, single agent): 97% | IC50 log10 (μM) (SUM159PT; SUM159PT, Exp. 3, single agent): −2.66 log10 (μM) | Maximum Kill Percent (SUM159PT; SUM159PT, Exp. 3, single agent): 99% | IC50 log10 (μM) (SUM159PT; SUM159PT, Exp. 4, single agent): −2.33 log10 (μM) | Maximum Kill Percent (SUM159PT; SUM159PT, Exp. 4, single agent): 96% | plasma protein binding (human plasma proteins): approximately 95% | Active Range based on XTC008 (cancer cells): 1 to 50 nM | differential tissue levels at 24 and 72 hours ([6]; liver, spleen, colon, plasma versus tumors): cleared faster from the liver, spleen, colon, and plasma, than from tumors

Cn1ncnc1[C@H]1c2n[nH]c(=O)c3cc(F)cc(c23)N[C@@H]1c1ccc(F)cc1 [Talazoparib]
Maximum Kill Percent (BT20; BT20, Exp. 4, single agent): 100% | IC50 (BT20; BT-20, read-out: IC50 log10 (μM) (converted)): 28.2 µM | IC50 (HCC1187; Homo sapiens, HCC1187, read-out: IC50 log10 (μM) (converted)): 191 µM | Maximum Kill Percent (HCC1954; HCC1954, Exp. 4, single agent): 100% | IC50 (HCC1954; HCC1954, read-out: IC50 log10 (μM) (converted)): 4370 µM | Maximum Kill Percent (HCC38; HCC38, Exp. 4, single agent): 92% | IC50 (HCC38; HCC38, read-out: IC50 log10 (μM) (converted)): 0.0589 µM | IC50 (SUM159PT; read-out: IC50 log10 (μM) (converted)): 0.0933 µM | Maximum Kill Percent (SUM159PT; SUM159PT, Exp. 4, single agent): 94% | inhibition of PARG (PARG): does not inhibit | EC50 (PAR): 0.0025 µM

C[C@]1(c2nc3c(C(N)=O)cccc3[nH]2)CCCN1 [Veliparib]
Estimated tumor range (Estimated tumor range): >2000 nM | effect of combination with SN-38 [1]: Additive/synergistic effects | effect of combination with SN-38 [3]: Additive/synergistic effects | growth inhibition of the cancer cells in combination with SN-38 [4]: additive/synergistic growth inhibition | potency in the combination with SN-38 ([4]; compared with olaparib and rucaparib): slightly less potent in the combination with SN-38 than olaparib and rucaparib | activity on SIRT2 (SIRT2): inactive | EC50 (PAR): 0.0059 µM | Active Range based on XTC008 (cancer cells): 1000 to 10000 nM | efficacy (tumor growth) ([6]; MM-398 2 mg/kg weekly Day 1, veliparib 50 mg/kg orally Days 4-6, FIG. 7B): neither MM-398 or veliparib were efficacious as single agents | efficacy (tumor growth) [7]: not efficacious
